In PMC4150738 (Analytica chimica acta, 2014):
Where two headings read alike, the source gives them in different places.

Experiments:
[1] = Short-term stability in fortified plasma; type: physicochemical, human
[2] = for plasma concentration, Without hydrolysis / plasma concentration, Hydrolysis: LOQ 0.25 μg L^−1; for plasma concentration, Hydrolysis: with hydrolysis
[3] = High QC 750 μg L^−1, n=5, vs freshly fortified
[4] = Low QC 0.75 μg L^−1, n=5, vs freshly fortified
[5] = Medium QC 25 μg L^−1, n=5, vs freshly fortified
[6] = rat plasma, 0.5 mg kg-1 MDPV ip, 10 min
[7] = rat plasma, 0.5 mg kg-1 MDPV ip, 20 min
[8] = rat plasma, 0.5 mg kg-1 MDPV ip, 30 min
[9] = rat plasma, 0.5 mg kg-1 MDPV ip, 60 min
[10] = rat plasma, 0.5 mg kg-1 MDPV ip, 120 min
[11] = rat plasma, 0.5 mg kg-1 MDPV ip, 240 min
[12] = rat plasma, 0.5 mg kg-1 MDPV ip, 480 min
[13] = rat plasma, 0.5 mg kg-1 MDPV sc, 10 min
[14] = rat plasma, 0.5 mg kg-1 MDPV sc, 20 min
[15] = rat plasma, 0.5 mg kg-1 MDPV sc, 30 min
[16] = rat plasma, 0.5 mg kg-1 MDPV sc, 60 min
[17] = rat plasma, 0.5 mg kg-1 MDPV sc, 120 min
[18] = rat plasma, 0.5 mg kg-1 MDPV sc, 240 min
[19] = rat plasma, 0.5 mg kg-1 MDPV sc, 480 min

CCCC(C(=O)c1ccc(O)c(O)c1)N1CCCC1 (stereo not shown) [3,4-catechol-PV, 3,4-dihydroxypyrovalerone]
Stability (% difference) 3 freeze-thaw cycles [1, 3]: −3.6 % difference
Stability (% difference) 72h at 4°C [1, 3]: −3 % difference
Stability (% difference) 3 freeze-thaw cycles [1, 4]: −3.2 % difference
Stability (% difference) 72h at 4°C [1, 4]: −7.3 % difference
Stability (% difference) 3 freeze-thaw cycles [1, 5]: −2.6 % difference
Stability (% difference) 72h at 4°C [1, 5]: 6.5 % difference
change of plasma concentration without the deconjugation step (hydrolysis) ([2]; rat plasma after 0.5 mg kg-1 MDPV ip or sc, with vs without hydrolysis): greatly decreased
form present in rat plasma ([2]; rat plasma after MDPV, concluded from hydrolysis comparison): primarily present as the conjugated forms
plasma concentration, Without hydrolysis ([2]; rat plasma, 0.5 mg kg-1 MDPV ip, 0 min (before dosing)): <LOQ
plasma concentration, Hydrolysis [2, 6]: 4.3 ng/mL
plasma concentration, Without hydrolysis [2, 6]: <LOQ
plasma concentration, Hydrolysis [2, 7]: 5.1 ng/mL
plasma concentration, Without hydrolysis [2, 7]: <LOQ
plasma concentration, Hydrolysis [2, 8]: 4.9 ng/mL
plasma concentration, Without hydrolysis [2, 8]: <LOQ
plasma concentration, Hydrolysis [2, 9]: 3.7 ng/mL
plasma concentration, Without hydrolysis [2, 9]: <LOQ
plasma concentration, Hydrolysis [2, 10]: 9.6 ng/mL
plasma concentration, Without hydrolysis [2, 10]: <LOQ
plasma concentration, Hydrolysis [2, 11]: 11.8 ng/mL
plasma concentration, Without hydrolysis [2, 11]: <LOQ
plasma concentration, Hydrolysis [2, 12]: 5.3 ng/mL
plasma concentration, Without hydrolysis [2, 12]: <LOQ
plasma concentration, Without hydrolysis ([2]; rat plasma, 0.5 mg kg-1 MDPV sc, 0 min (before dosing)): <LOQ
plasma concentration, Hydrolysis [2, 13]: 1.3 ng/mL
plasma concentration, Without hydrolysis [2, 13]: <LOQ
plasma concentration, Hydrolysis [2, 14]: 2.7 ng/mL
plasma concentration, Without hydrolysis [2, 14]: <LOQ
plasma concentration, Hydrolysis [2, 15]: 3.1 ng/mL
plasma concentration, Without hydrolysis [2, 15]: <LOQ
plasma concentration, Hydrolysis [2, 16]: 3.8 ng/mL
plasma concentration, Without hydrolysis [2, 16]: <LOQ
plasma concentration, Hydrolysis [2, 17]: 9.4 ng/mL
plasma concentration, Without hydrolysis [2, 17]: <LOQ
plasma concentration, Hydrolysis [2, 18]: 9.8 ng/mL
plasma concentration, Without hydrolysis [2, 18]: <LOQ
plasma concentration, Hydrolysis [2, 19]: 3.6 ng/mL
plasma concentration, Without hydrolysis [2, 19]: <LOQ
plasma concentration range after intraperitoneal dosing ([2]; rat plasma, 0.5 mg kg^−1 MDPV intraperitoneal, samples 10-480 min after dosing): 3.7 to 11.8 ng/mL
plasma concentration range after the subcutaneous dose ([2]; rat plasma, 0.5 mg kg^−1 MDPV subcutaneous, samples 10-480 min after dosing): 1.3 to 9.8 ng/mL
